Legend:
[1] = system: CH58TF infected primary CD4+ T-cells; experiment: HIV+ patient sera/plasma recognition of CH58TF infected primary CD4+ T-cells (flow cytometry cell-surface staining); format: cell-based, HIV-1; conditions: for recognition of infected cells by plasma from 15 HIV-1-infected individuals: 50 μM, 1:1000 diluted HIV+ plasma, result in words; for fold induction at 50 µM: Human immunodeficiency virus 1, T-cell, read-out: Fold Over DMSO (patient sera, n = 3)
In short: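 Primary CD4+ T cells from PBMC infected with HIV-1 CH58TF for 48 h, then surface-stained with 1:1000 HIV+ plasma or 5 μg/ml 17b plus 50 μM MCG analogs or DMSO; Alexa Fluor 647 anti-human IgG detection by flow cytometry, infected cells gated p24+. Values are fold change over DMSO.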

[2] = system: CH58TF infected primary CD4+ T-cells; experiment: Recognition of HIV-1 infected cells by 17b (flow cytometry cell-surface staining); format: cell-based; conditions: for recognition of infected cells by the anti-CoRBS 17b antibody: 50 μM, 5 μg/ml 17b, result in words; for fold induction at 50 µM: Human immunodeficiency virus 1, T-cell, read-out: Fold Over DMSO (17b, n = 1)
In short: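 Primary CD4+ T cells infected 48 h with HIV-1 CH58TF, stained with 5 μg/ml 17b plus MCG analogs (50 μM), (+)-BNM-III-170 or DMSO vehicle. Detection by Alexa Fluor 647 anti-human IgG secondary and flow cytometry. Infected cells gated as p24+ living cells.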

[3] = system: primary CD4+ T cells infected with CH58 TF; experiment: FACS-based ADCC assay with patient sera/plasma; format: cell-based, HIV-1; conditions: for ADCC responses against infected cells: 50 μM, 1/1,000 dilution of plasma from 15 HIV-1-infected individuals, result in words; for fold induction at 50 µM: Human immunodeficiency virus 1, CD4+ T, read-out: Fold over DMSO (% ADCC with ps, n = 3)
Description: Measurement of antibody or serum-mediated ADCC is performed with a FACS-based assay as described in Prevost, “Influence of the Envelope gp120 Phe 43 Cavity on HIV-1 Sensitivity to Antibody-Dependent Cell-Mediated Cytotoxicity Responses,” 2017, J. Virol 91; Richard, “CD4 mimetics sensitize HIV-1-infected cells to ADCC,” 2015, Proc. Natl. Acad. Sci. USA, 112:E2687-2694; Richard, “Small CD4 Mimetics Prevent HIV-1 Uninfected Bystander CD4+ T Cell Killing Mediated by Antibody-dependent Cell-mediated Cytotoxicity,” 2016, EBioMedicine 3:122-134; Veillette, “The HIV-1 gp120 CD4-Bound Conformation Is Preferentially Targeted by Antibody-Dependent Cellular Cytotoxicity-Mediating Antibodies in Sera from HIV-1-Infected Individuals,” 2015, J. Virol., 89:545-551; Veillette, “Interaction with cellular CD4 exposes HIV-1 envelope epitopes targeted by antibody-dependent cell-mediated cytotoxicity,” 2014, J. Virol., 88:2633-2644; Richard, “Uninfected Bystander Cells Impact the Measurement of HIV-Specific Antibody-Dependent Cellular Cytotoxicity Responses,” 2018, MBio. 9(2): e00358-18; Richard, “BST-2 Expression Modulates Small CD4-Mimetic Sensitization of HIV-1-Infected Cells to Antibody-Dependent Cellular Cytotoxicity,” 2017, J. Virol. 91(11):e00219-17. This assay specifically measures ADCC activity against productively infected cells and is not affected by the confounding effect of uninfected bystander cells. See, Richard, “Uninfected Bystander Cells Impact the Measurement of HIV-Specific Antibody-Dependent Cellular Cytotoxicity Responses,” 2018, MBio., 9(2): e00358-18.
Briefly, primary CD4+ T cells isolated from healthy HIV-1-negative individuals or CEM-NKr cells are infected with HIV viruses. Forty-eight hours post-infection, cells are incubated with autologous PBMC (effector:target cell ratio of 10:1) in the presence of 1:1000 HIV+ sera dilution or anti-Env Abs (5 μg/mL) alone or in combination with increasing concentration of MCG analogs. Infected cells are identified by intracellular staining for HIV-1 p24 or GFP expression (for GFP expressing infectious molecular clones) and the percentage of cytotoxicity is calculated the following formula as described.
For cells infected with HIV-1 primary isolates, infected cells are identified by intracellular staining for HIV-1 p24. In that context, the percentage of cytotoxicity is calculated with the following formula by gating infected lived target cells: […]
The ADCC susceptibility of primary CD4+ T cells infected with CH58 TF mediated by HIV+ plasma+/−MCG analogs also was evaluated using a FACS-based assay as previously reported. See, Ding, 2016, J Virol., 90:2127-2134; and Richard, 2018, MBio 9.
Briefly, Primary CD4 T cells isolated from PBMC were infected with HIV-1CH58TF for 48 hours. For cell surface staining, 5 μg/ml 17b (FIG. 15A) or 1:1000 diluted HIV+ plasma (n=15) (FIG. 15B) were used in the presence of the different MCG analogs (50 μM), (+)-BNM-III-170 or with an equivalent volume of vehicle (DMSO). An Alexa Fluor 647-conjugated anti-human IgG secondary Ab was then used for fluorescent labeling. For ADCC (FIG. 15C), infected cells were used as target cells in a FACS-based ADCC assay that measures the killing of infected (p24+ cells). See, Madani, 2016, J. Virol., 90:5031-5046. The assay determines susceptibility to ADCC mediated by a 1/1,000 dilution of plasma from 15 HIV-1-infected individuals in the presence of the different MCG analogs (50 μM), (+)-BNM-III-170 (50 μM) or with an equivalent volume of vehicle (DMSO). Correlation between cell-surface staining with HIV+ plasma and ADCC was calculated using the Spearman rank correlation (FIG. 15D).

[4] = Solubility in PBS; format: physicochemical; conditions: Yes/NO

SMILES | recognition of infected cells by plasma from 15 HIV-1-infected individuals [1] | fold induction at 50 µM [1] | recognition of infected cells by the anti-CoRBS 17b antibody [2] | fold induction at 50 µM [2] | ADCC responses against infected cells [3] | fold induction at 50 µM [3] | Solubility (in PBS) [4]
CS(=O)(=O)N1CCC[C@H](C(=O)Nc2ccc(Cl)c(F)c2)C1 [(S)-MCG-III-027-D05] | enhanced the recognition of infected cells | 2.83 | enhanced the recognition of infected cells | 2.22 | enhanced ADCC responses | 1.01 | Yes
COC(=O)N1CCC[C@H](C(=O)Nc2ccc(Cl)c(F)c2)C1 [(S)-MCG-III-188-A01] | enhanced the recognition of infected cells | 2.69 | enhanced the recognition of infected cells | 7.11 | enhanced ADCC responses | 2.27 | Yes
COc1cccc(NC(=O)[C@H]2CCCN(S(C)(=O)=O)C2)c1 [(S)-MCG-III-027-B05] |  | 1.71 |  | 1.03 |  | 0.361 | Yes
Cn1cnc(S(=O)(=O)N2CCC[C@H](C(=O)Nc3ccc(Cl)c(F)c3)C2)c1 [(S)-MCG-III-116-A02] |  | 1.97 |  |  |  | 1.86 | 
CS(=O)(=O)N1CCC[C@H](C(=O)Nc2cccc(C(F)(F)F)c2)C1 [(S)-MCG-III-027-B04] |  | 1.47 |  | 1.01 |  | 0.129 | Yes
CS(=O)(=O)N1CCC[C@H](C(=O)Nc2cccc(Br)c2)C1 [(S)-MCG-III-027-B02] |  | 1.62 |  | 1.06 |  | 0.74 | Yes
CS(=O)(=O)N1CCC[C@H](C(=O)Nc2ccc(F)cc2)C1 [(S)-MCG-III-027-A03] |  | 1.52 |  | 1.12 |  | 0.969 | Yes
O=C(Nc1ccc(Cl)c(F)c1)C1CCCN(S(=O)(=O)c2ccccc2)C1 (stereo not drawn) [MCG-III-157-B03] |  | 3.73 |  |  |  | 1.94 | 
CS(=O)(=O)N1CCC[C@H](C(=O)Nc2ccccc2Cl)C1 [(S)-MCG-III-027-C01] |  | 1.06 |  | 1.14 |  | 0.722 | Yes
O=C(Nc1ccc(Cl)c(F)c1)C1CCCOC1 (stereo not drawn) [MCG-III-207] |  | 1.92 |  | 3.69 |  | 1.59 | Yes
NCCNC(=O)N1CCC[C@H](C(=O)Nc2ccc(Cl)c(F)c2)C1 [(S)-MCG-IV-210] | enhanced the recognition of infected cells |  | enhanced the recognition of infected cells |  | enhanced ADCC responses |  | 
CS(=O)(=O)N1CCC[C@H](C(=O)Nc2ccc(Br)cc2)C1 [(S)-MCG-III-027-A02] |  | 2.08 |  | 1.65 |  | 0.291 | Yes
Cn1cnc(S(=O)(=O)N2CCCC(C(=O)Nc3ccc(Cl)c(F)c3)C2)c1 (stereo not drawn) [MCG-III-157-B04] |  | 2.4 |  |  |  | 1.73 | Yes
CCCNC(=O)N1CCC[C@H](C(=O)Nc2ccc(Cl)c(F)c2)C1 [(S)-MCG-IV-031-A05] | enhanced the recognition of infected cells |  | enhanced the recognition of infected cells |  | enhanced ADCC responses |  | 
CCS(=O)(=O)N1CCC[C@H](C(=O)Nc2ccc(Cl)c(F)c2)C1 [(S)-MCG-III-085-C01] |  | 3.28 |  | 5.7 |  | 0.487 | Yes
CS(=O)(=O)N1CCC[C@H](C(=O)Nc2cccc(Cl)c2)C1 [(S)-MCG-III-027-B01] |  | 1.37 |  | 1.04 |  | 0.87 | Yes
CCOC(=O)N1CCC[C@H](C(=O)Nc2ccc(Cl)c(F)c2)C1 [(S)-MCG-III-188-A02] | enhanced the recognition of infected cells | 3.83 | enhanced the recognition of infected cells | 6.35 | enhanced ADCC responses | 0.867 | Yes
CS(=O)(=O)N1CCC[C@H](C(=O)Nc2cccc(F)c2)C1 [(S)-MCG-III-027-B03] |  | 1.44 |  | 1.05 |  | 1.17 | Yes
CS(=O)(=O)N1CCC[C@H](C(=O)Nc2ccc(F)cc2F)C1 [(S)-MCG-III-027-D04] |  | 1.24 |  | 1.17 |  | 1.37 | Yes
